Data set [1] has as its target T1, Tat-TAR complex (recombinant Tat, synthetic TAR duplex) (Human immunodeficiency virus type 1 group M subtype B, UniProt P04608).
T1 construct: purchased Medical Research Council (MRC), Cambridge, U.K
Kind of data set: competition Tat-TAR gel-shift assay. It is filed as binding, HIV-1. The source says: The in vitro inhibition of the interaction between Tat and TAR can be shown by a competition Tat-TAR gel-shift assay. Through binding of the protein (recombinant Tat, Medical Research Council (MRC), Cambridge, U.K. - for the sequence of recombinant Tat see Churcher et al., J. Mol. Biol. 230, 90-110 (1993)) to the RNA (synthetic TAR duplex, Genset, Paris, France; for the sequence see Hamy et al., J. Mol. Biol. 230, 111-123 (1993)), the overall size and the charge/weight ratio of the formed duplex are changed, so that electrophoretic migration through a native polyacrylamide gel is affected. By radioactive labelling of the RNA and subsequent autoradiography, free RNA and complexes can be discriminated based on their relative positions in the gel (Hamy et al., J. Mol. Biol. 230, 111-123 (1993)). If the binding reaction with a test substance is able to prevent the protein binding to the radiolabelled RNA, this competition for binding can be visualized on the autoradiography as a decreased intensity of the retarded band. In more detail, compounds of the formula I are tested as follows:
The 14-mer strand of duplex TAR-RNA is labelled in the presence of T4 polynucleotide kinase (New England Biolabs, Beverly, MA, USA) using [γ-^32P]ATP (Amersham, Little Chalfont, UK), 10 mM DTT (=dithiothreitol), 50 mM Tris.HCI (pH 7.4, Tris = Tris(hydroxymethyl)aminomethane), 0.77 % (w/v) spermidine (Fluka, Switzerland) and 10 units T4 polynucleotide kinase incubated at 37 °C for 20 min. After heat-treatment (65 °C, 10 min) for enzyme inactivation, the unincorporated [γ-^32P]ATP is removed by chromatography through a Sephadex NAP-10 column (Pharmacia, Uppsala, Sweden) equilibrated with water. Prior to the in-vitro-binding reaction, the labelled 14-mer is annealed to 1.5 equivalents of unlabelled 17-mer by heating to 90 C for 3 min, followed by slow cooling down to 0 °C. […] The CD50-values that are obtained are preferably in the range of from 10 x 10^-9 to 10 x 10^-6 M, more preferably from 10 x 10^-9 to 0.5 x 10^-6 M.

Data set [2] can be described thus: maximal tolerated dose (MTD) determination in mice. In kind it is in vivo. The method, then: After single application of up to 50 mg/kg by i.v. administration to mice no signs of overt toxicity are observed during 8 days of observation. In detail, the assay is conducted as follows: The assay is designed for the determination of the maximal tolerated dose (MTD) For the MTD determination, three six to eight week old female Balb/c AnCbif Tif mice (Ciba animal farm, Sisseln, Switzerland) per dose group are treated once i.v. The dosage is increased until toxic effects are observed within 7 days after drug treatment. After 7 days the animals are euthanasized and organs are macroscopically inspected. The MTD is the dose where all three animals still survive. For example, when the compounds of examples 2 or 4, trans-5-(Acetoacetylamino)-2-[2-{4-(4,5-dihydro-3-methyl-5-oxo-1H-pyrazol-1-yl)-2-sulfophenyl]ethenyl]-benzenesulfonic acid or N,N'-Bis(trans-4-{2-[4-(3-methyl-5-oxo-4,5-dihydro-1H.-pyrazol-1-yl)-2-sulfo-phenyl]-vinyl}-2-sulfophenyl)-[1,3,5]triazine-2,4,6-triamine, are dissolved in sterile sodium chloride solution 0.9%, the MTD after i.v. administration is > 50 mg/kg.

The test system of data set [3] is HIV-1/LAV.04. As to the kind of experiment: inhibition of viral growth of HIV-1 in PBLs (RT activity in cell supernatants). In kind it is cell-based. The settings on record: concentration at which 90 % reduction of RT activity versus untreated control is observed; human PBLs infected with HIV-1/LAV.04.
Description: In brief, Peripheral Blood Mononuclear Lymphocytes (PBLs) are obtained from the blood of healthy volunteers by leukapheresis. Cells (1 x 10^6/ml) are cultured for 2 days in RPMI-1640 (Gibco), supplemented with 10 % heat-inactivated fetal calf serum (Gibco), 50 mg/ml streptomycin, 50 U/ml penicillin (Amimed), 2 nM glutamine and 10 mM hepes buffer (Gibco). Stimulated lymphocytes are obtained by culturing in the presence of PHA (0.25 mg/ml; Wellcome diagnostics, Templehill, Dartford, England). PHA-lymphocyte stimulation is confirmed by the increase in cell size (Scattergram, FACS analysis). Cells are exposed to HIV-1/LAV.04 (see Barre-Sinoussi et al., Science 220, 868-871 (1983)) for 6 h. […] Medium is changed every 3 days and activity of viral reverse transcriptase (RT activity) is determined in cell supernatants, serving as a measure for the presence of virus and thus of progression of infection according to known procedures (see Willey et al., J. Virol. 62, 353-8 (1991) for details of the method). In brief, RT determination is possible as follows: The RT activity is determined in 50mM Tris (α,α,α--tris(hydroxymethyl)methylamine, ultra pure, Merck, Federal Republic of Germany) pH 7.8; 75mM of KCl, 2mM of dithiothreitol, 5mM of MgCl2; 0.05% Nonidet P-40 (detergent; Sigma, Switzerland); 50 µg/ml of polyadenylic acid (Pharmacia, Sweden); and 1.6 µg/ml of dT(12-18) (Sigma, Switzerland). […]
Setting [4] is: concentration giving 50 % decrease in intensity of the retarded band (Tat-TAR complex), 20 nM recombinant Tat, read-out: CD50 (the source's name).

A word on the MTD: it is the highest dose tested that stayed within the study's limit of toxicity. High values mean better tolerability, low ones poorer tolerability.

Where a name gives a salt, the structure may show the parent alone. Read-outs that look alike come from different tables or passages of the source.

T1 sequence (P04608 whole entry, one chain of several): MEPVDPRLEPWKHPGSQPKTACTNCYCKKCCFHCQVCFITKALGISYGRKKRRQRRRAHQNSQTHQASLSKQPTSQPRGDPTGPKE

`CC1=NN(c2ccc(/C=C/c3ccc(Nc4nc(N)nc(Nc5ccc(/C=C/c6ccc(N7N=C(C)CC7=O)cc6S(=O)(=O)O)cc5S(=O)(=O)O)n4)c(S(=O)(=O)O)c3)c(S(=O)(=O)O)c2)C(=O)C1` [Example 4, N,N'-Bis(trans-4-{2-[4-(3-methyl-5-oxo-4,5-dihydro-1.H.-pyrazol-1-yl)-2-sulfophenyl]-vinyl}-2-sulfophenyl)-[1,3,5]triazine-2,4,6-triamine]: the IC50 in data set [1] (setting [4]) turned out to be 0.05 µM. In data set [2] (single i.v. administration, female mice, dissolved in sterile sodium chloride solution 0.9%, dose where all three animals still survive, 10080 min), this molecule returned an MTD above 50 mg/kg.
For the molecule `CC(=O)CC(=O)Nc1ccc(/C=C/c2ccc(N3N=C(C)CC3=O)cc2S(=O)(=O)O)c(S(=O)(=O)O)c1` [Example 2, trans-5-(Acetoacetylamino)-2-[2-{4-(4,5-dihydro-3-methyl-5-oxo-1H-pyrazol-1-yl)-2-sulfophenyl}ethenyl]-benzenesulfonic acid], the IC50 in data set [1] worked out at 0.02 µM. Also, the ED90 in data set [3] was 30 µM. In data set [2] (female, Balb/c AnCbif Tif, mouse, in vivo, iv), the MTD at 7 days was above 50 mg/kg.
`CC1=NN(c2ccc(/C=C/c3ccc(Nc4nc(Cl)nc(Nc5ccc(/C=C/c6ccc(N7N=C(C)CC7=O)cc6S(=O)(=O)O)cc5S(=O)(=O)O)n4)c(S(=O)(=O)O)c3)c(S(=O)(=O)O)c2)C(=O)C1` [Example 3, N,N'-Bis(trans-4-{2-[4-(3-methyl-5-oxo-4,5-dihydro-1.H.-pyrazol-1-yl)-2-sulfophenyl]-vinyl}-2-sulfophenyl)-2-chloro-[1,3,5]triazine-4,6-diamine]: the IC50 in data set [1] (setting [4]) is 0.05 µM. For the same molecule, the ED90 in data set [3] worked out at 20 µM.
`CC1=NN(c2ccc(/C=C/c3ccc(NC(=O)Nc4ccc(/C=C/c5ccc(N6N=C(C)C(N=Nc7ccccc7C(=O)O)C6=O)cc5S(=O)(=O)O)cc4S(=O)(=O)O)c(S(=O)(=O)O)c3)c(S(=O)(=O)O)c2)C(=O)C1N=Nc1ccccc1C(=O)O` (stereo not drawn) [Example 5, N,N'-Bis(trans-4-{2-[4-(3-methyl-5-oxo-4-(o-carboxyphenylazo)-4,5-dihydro-1.H.-pyrazol-1-yl)-2-sulfo-phenyl]-vinyl}-2-sulfophenyl)-urea tetrasodium salt]: the IC50 in data set [1] (setting [4]) worked out at 0.07 µM.

Values taken from patent publication EP1261587B1, “STILBENE DERIVATIVES, THEIR PREPARATION AND THEIR USE AS ANTIVIRAL AGENTS” (priority 1999, dated 2001).
